According to patent US4197312A, “Alkali metal and alkaline earth metal salts of benzoylacetonitriles” (American Cyanamid Company, priority 1978, dated 1980):

Tests used:
[1] = test system: Adjuvant induced arthritis; assay: Adjuvant induced arthritis in the rat (primary lesion, paw swelling); type: in vivo, rat (Royal Hart, Wistar strain); conditions: once daily days 0 to 13
Protocol: Adjuvant induced arthritis in the rat
Groups of three Royal Hart, Wistar strain rats weighing 200±10 g. each were injected intradermally in the right hind paw with Freund's adjuvant (dried human tubercle bacilli in a mineral oil vehicle) at a dose of 2 mg./kg. of body weight. The test compounds were administered orally in a 1.5% starch vehicle at various doses once daily on days 0 to 13 post challenge. Control rats were treated in a similar manner, but given only starch vehicle. On the 14th and 21st day post challenge the diameter of the injected paw was measured by micrometer caliper. The volume of inflamed paws were estimated from these measurements and the effects of each compound are expressed as percent inhibition of swelling was compared to controls. Table I records the results of these tests conducted with representative compounds of this invention and known anti-inflammatory agents. The active compounds of this invention suppress the progression of the arthritis and associated joint deterioration.

[2] = test system: arthritic paw swelling; joint and bone deterioration; conditions: literature (S. Wong et al.; G. R. Bobalick et al.); cited from earlier work

With `CC(=O)Oc1ccccc1C(=O)O` [Aspirin] the “(Primary Lesion) % Inhibition of Swelling Day 14” value ([1]; oral 50 mg./kg.) was 23%, the “(Primary Lesion) % Inhibition of Swelling Day 21” value ([1]; oral 50 mg./kg.) was 3% and the “(Primary Lesion) % Inhibition of Swelling Day 14” value ([1]; oral 100 mg./kg.) was 36%. For the same molecule, the “(Primary Lesion) % Inhibition of Swelling Day 21” value ([1]; oral 100 mg./kg.) was 13%, the “(Primary Lesion) % Inhibition of Swelling Day 14” value ([1]; oral 200 mg./kg.) was 48% and the “(Primary Lesion) % Inhibition of Swelling Day 21” value ([1]; oral 200 mg./kg.) was 27%. The “(Primary Lesion) % Inhibition of Swelling Day 14” value ([1]; oral 400 mg./kg.) was 73% and the “(Primary Lesion) % Inhibition of Swelling Day 21” value ([1]; oral 400 mg./kg.) was 48%.
In the case of `N#CCC(=O)c1ccccc1.[Na]` [Benzoylacetonitrile sodium salt, Benzoylacetonitrile, sodium salt], the “(Primary Lesion) % Inhibition of Swelling Day 14” value ([1]; oral 50 mg./kg.) is reported as 59% and the “(Primary Lesion) % Inhibition of Swelling Day 21” value ([1]; oral 50 mg./kg.) is reported as 45%.
For `COc1ccc2c(c1)c(CC(=O)O)c(C)n2C(=O)c1ccc(Cl)cc1` [Indomethacin], the “(Primary Lesion) % Inhibition of Swelling Day 14” value ([1]; oral 0.25 mg./kg.) was 30%, the “(Primary Lesion) % Inhibition of Swelling Day 21” value ([1]; oral 0.25 mg./kg.) was 4% and the “(Primary Lesion) % Inhibition of Swelling Day 14” value ([1]; oral 0.5 mg./kg.) was 40%. For the same molecule, the “(Primary Lesion) % Inhibition of Swelling Day 21” value ([1]; oral 0.5 mg./kg.) was 20%, the “(Primary Lesion) % Inhibition of Swelling Day 14” value ([1]; oral 1 mg./kg.) was 46% and the “(Primary Lesion) % Inhibition of Swelling Day 21” value ([1]; oral 1 mg./kg.) was 19%. The “(Primary Lesion) % Inhibition of Swelling Day 14” value ([1]; oral 2 mg./kg.) was 51%, the “(Primary Lesion) % Inhibition of Swelling Day 21” value ([1]; oral 2 mg./kg.) was 24% and the arthritic paw swelling [2] was “inhibit arthritic paw swelling”. For the same molecule, the “joint and bone deterioration” value [2] was “prevent joint and bone deterioration”.
With `CCCCC1C(=O)N(c2ccccc2)N(c2ccccc2)C1=O` [Phenylbutazone] the “(Primary Lesion) % Inhibition of Swelling Day 14” value ([1]; oral 18.5 mg./kg.) was 31%, the “(Primary Lesion) % Inhibition of Swelling Day 21” value ([1]; oral 18.5 mg./kg.) was 7% and the “(Primary Lesion) % Inhibition of Swelling Day 14” value ([1]; oral 37.5 mg./kg.) was 56%. The “(Primary Lesion) % Inhibition of Swelling Day 21” value ([1]; oral 37.5 mg./kg.) was 14%, the “(Primary Lesion) % Inhibition of Swelling Day 14” value ([1]; oral 75 mg./kg.) was 62% and the “(Primary Lesion) % Inhibition of Swelling Day 21” value ([1]; oral 75 mg./kg.) was 28%. The “(Primary Lesion) % Inhibition of Swelling Day 14” value ([1]; oral 150 mg./kg.) was 75% and the “(Primary Lesion) % Inhibition of Swelling Day 21” value ([1]; oral 150 mg./kg.) was 44%.
In the case of `N#CCC(=O)c1ccc(F)cc1.[Na]` [p-Fluorobenzoylacetonitrile sodium salt, p-Fluorobenzoylacetonitrile, sodium salt], the “(Primary Lesion) % Inhibition of Swelling Day 14” value ([1]; oral 50 mg./kg.) is reported as 53% and the “(Primary Lesion) % Inhibition of Swelling Day 21” value ([1]; oral 50 mg./kg.) is reported as 32%.
